Consider 7 compounds from ChEMBL document CHEMBL5370535, “Thiazolyl hydrazineylidenyl indolones as unique potential multitargeting broad-spectrum antimicrobial agents” (Eur J Med Chem, 2023).

By MIC is commonly meant the lowest concentration found to suppress growth.

Common to all, as to format: functional
In experiment [1] the test system is Candida albicans. Description: Antifungal activity against Candida albicans assessed as inhibition of fungal growth incubated for 24 hrs by CLSI based two serial dilution assay.
The test system of the next experiment is Enterococcus faecalis. Description: Antibacterial activity against Enterococcus faecalis assessed as bacterial growth inhibition incubated for 24 hrs by CLSI based two serial dilution assay.
For experiment [2], the system named is Escherichia coli. Description: Antibacterial activity against Escherichia coli 25922 assessed as bacterial growth inhibition incubated for 24 hrs by CLSI based two serial dilution assay.
The subject of experiment [3] is Staphylococcus aureus. Nature of the experiment: Antibacterial activity against Staphylococcus aureus assessed as bacterial growth inhibition incubated for 24 hrs by CLSI based two serial dilution assay.
The test system of experiment [4] is Staphylococcus aureus. Nature of the experiment: Antibacterial activity against Staphylococcus aureus 29213 assessed as bacterial growth inhibition incubated for 24 hrs by CLSI based two serial dilution assay.
Experiment [5] deals with Pseudomonas aeruginosa. Description: Antibacterial activity against Pseudomonas aeruginosa ATCC 27853 assessed as bacterial growth inhibition incubated for 24 hrs by CLSI based two serial dilution assay.
Experiment [6] concerns Candida albicans. Nature of the experiment: Antifungal activity against Candida albicans ATCC 90023 assessed as inhibition of fungal growth incubated for 24 hrs by CLSI based two serial dilution assay.
Another experiment concerns Candida tropicalis. Description: Antifungal activity against Candida tropicalis assessed as inhibition of fungal growth incubated for 24 hrs by CLSI based two serial dilution assay.
Experiment [7] concerns Staphylococcus aureus. Nature of the experiment: Antibacterial activity against Staphylococcus aureus 25923 assessed as bacterial growth inhibition incubated for 24 hrs by CLSI based two serial dilution assay.
Experiment [8] deals with Escherichia coli. Nature of the experiment: Antibacterial activity against Escherichia coli assessed as bacterial growth inhibition incubated for 24 hrs by CLSI based two serial dilution assay.
In the next experiment the test system is Acinetobacter baumannii. Nature of the experiment: Antibacterial activity against Acinetobacter baumannii assessed as bacterial growth inhibition incubated for 24 hrs by CLSI based two serial dilution assay.
In a further experiment the test system is Candida parapsilosis. Description: Antifungal activity against Candida parapsilosis ATCC 22019 assessed as inhibition of fungal growth incubated for 24 hrs by CLSI based two serial dilution assay. The settings on record: Lodderomyces parapsilosis.
Experiment [9] concerns Staphylococcus aureus. Description: Antibacterial activity against methicillin-resistant Staphylococcus aureus assessed as bacterial growth inhibition incubated for 24 hrs by CLSI based two serial dilution assay.
Another experiment has as its system Aspergillus fumigatus. Description: Antifungal activity against Aspergillus fumigatus assessed as inhibition of fungal growth incubated for 24 hrs by CLSI based two serial dilution assay.
The subject of experiment [10] is Pseudomonas aeruginosa. Description: Antibacterial activity against Pseudomonas aeruginosa assessed as bacterial growth inhibition incubated for 24 hrs by CLSI based two serial dilution assay.
The next experiment concerns Klebsiella pneumoniae. Description: Antibacterial activity against Klebsiella pneumoniae assessed as bacterial growth inhibition incubated for 24 hrs by CLSI based two serial dilution assay.

≈ marks a conversion by molar mass, not a printed value.

Consider `C#CCN1C(=O)/C(=N\Nc2nccs2)c2ccccc21`, for which the MIC in the experiment on Candida albicans [1] came to 256 µM (≈ 72.3 µg/mL); in the experiment on Enterococcus faecalis, 256 µM (≈ 72.3 µg/mL); in the experiment with Escherichia coli [2] it was 512 µM (≈ 145 µg/mL); in the experiment on Staphylococcus aureus [3], 256 µM (≈ 72.3 µg/mL); in the experiment on Staphylococcus aureus [4], 512 µM (≈ 145 µg/mL); in the experiment on Pseudomonas aeruginosa [5] it was 512 µM (≈ 145 µg/mL). Further, the MIC is 256 µM (≈ 72.3 µg/mL) in the experiment on Candida albicans [6]; 256 µM (≈ 72.3 µg/mL) with Candida tropicalis; 512 µM (≈ 145 µg/mL) in the experiment with Staphylococcus aureus [7]; 512 µM (≈ 145 µg/mL) in the experiment on Escherichia coli [8]; 512 µM (≈ 145 µg/mL) in the experiment on Acinetobacter baumannii; 64 µM (≈ 18.1 µg/mL) in the experiment with Candida parapsilosis. Further, the MIC in the experiment on Staphylococcus aureus [9] was 256 µM (≈ 72.3 µg/mL); in the experiment on Aspergillus fumigatus, 64 µM (≈ 18.1 µg/mL); with Pseudomonas aeruginosa [10], 256 µM (≈ 72.3 µg/mL); in the experiment on Klebsiella pneumoniae, 512 µM (≈ 145 µg/mL).
For `CCCCN1C(=O)/C(=N\Nc2nccs2)c2ccc(F)cc21`, the MIC was 2 µM (≈ 0.637 µg/mL) with Candida albicans [1]; 32 µM (≈ 10.2 µg/mL) in the experiment on Enterococcus faecalis; 4 µM (≈ 1.27 µg/mL) in the experiment with Escherichia coli [2]; 4 µM (≈ 1.27 µg/mL) in the experiment on Staphylococcus aureus [3]; 4 µM (≈ 1.27 µg/mL) in the experiment on Staphylococcus aureus [4]; 2 µM (≈ 0.637 µg/mL) in the experiment on Pseudomonas aeruginosa [5]. For the same compound, the MIC with Candida albicans [6] is 4 µM (≈ 1.27 µg/mL); in the experiment with Candida tropicalis, 32 µM (≈ 10.2 µg/mL); in the experiment on Staphylococcus aureus [7], 4 µM (≈ 1.27 µg/mL); in the experiment on Escherichia coli [8], 2 µM (≈ 0.637 µg/mL); in the experiment on Acinetobacter baumannii, 1 µM (≈ 0.318 µg/mL); in the experiment on Candida parapsilosis it was 1 µM (≈ 0.318 µg/mL). Moreover, the MIC turned out to be 4 µM (≈ 1.27 µg/mL) in the experiment on Staphylococcus aureus [9], 2 µM (≈ 0.637 µg/mL) in the experiment with Aspergillus fumigatus, 1 µM (≈ 0.318 µg/mL) with Pseudomonas aeruginosa [10] and 2 µM (≈ 0.637 µg/mL) with Klebsiella pneumoniae.
Take `CCCCCN1C(=O)/C(=N\Nc2nccs2)c2ccccc21`: the MIC amounted to 4 µM (≈ 1.26 µg/mL) with Candida albicans [1]; 4 µM (≈ 1.26 µg/mL) with Enterococcus faecalis; 4 µM (≈ 1.26 µg/mL) in the experiment with Escherichia coli [2]; 4 µM (≈ 1.26 µg/mL) in the experiment on Staphylococcus aureus [3]; 4 µM (≈ 1.26 µg/mL) in the experiment on Staphylococcus aureus [4]; 16 µM (≈ 5.03 µg/mL) with Pseudomonas aeruginosa [5]. Moreover, the MIC worked out at 4 µM (≈ 1.26 µg/mL) in the experiment with Candida albicans [6]; 16 µM (≈ 5.03 µg/mL) in the experiment with Candida tropicalis; 16 µM (≈ 5.03 µg/mL) with Staphylococcus aureus [7]; 16 µM (≈ 5.03 µg/mL) with Escherichia coli [8]; 4 µM (≈ 1.26 µg/mL) in the experiment on Acinetobacter baumannii; 4 µM (≈ 1.26 µg/mL) in the experiment on Candida parapsilosis. Further, the MIC in the experiment on Staphylococcus aureus [9] turned out to be 4 µM (≈ 1.26 µg/mL); with Aspergillus fumigatus it was 4 µM (≈ 1.26 µg/mL); in the experiment with Pseudomonas aeruginosa [10], 2 µM (≈ 0.629 µg/mL); in the experiment on Klebsiella pneumoniae, 4 µM (≈ 1.26 µg/mL).
Regarding `O=C1/C(=N\Nc2nccs2)c2ccccc2N1Cc1ccccc1Cl`, the MIC came to 16 µM (≈ 5.9 µg/mL) in the experiment on Candida albicans [1]; 32 µM (≈ 11.8 µg/mL) in the experiment with Enterococcus faecalis; 256 µM (≈ 94.4 µg/mL) in the experiment on Escherichia coli [2]; 8 µM (≈ 2.95 µg/mL) with Staphylococcus aureus [3]; 64 µM (≈ 23.6 µg/mL) in the experiment with Staphylococcus aureus [4]; 512 µM (≈ 189 µg/mL) in the experiment with Pseudomonas aeruginosa [5]. For the same compound, the MIC with Candida albicans [6] turned out to be 4 µM (≈ 1.48 µg/mL); with Candida tropicalis, 16 µM (≈ 5.9 µg/mL); in the experiment with Staphylococcus aureus [7], 64 µM (≈ 23.6 µg/mL); in the experiment on Escherichia coli [8], 256 µM (≈ 94.4 µg/mL); with Acinetobacter baumannii it was 512 µM (≈ 189 µg/mL); in the experiment with Candida parapsilosis, 4 µM (≈ 1.48 µg/mL). The MIC turned out to be 8 µM (≈ 2.95 µg/mL) with Staphylococcus aureus [9], 16 µM (≈ 5.9 µg/mL) with Aspergillus fumigatus, 32 µM (≈ 11.8 µg/mL) with Pseudomonas aeruginosa [10] and 512 µM (≈ 189 µg/mL) in the experiment with Klebsiella pneumoniae.
Take `CCCCN1C(=O)/C(=N\Nc2nccs2)c2cc(F)ccc21`: the MIC with Candida albicans [1] was found to be 1 µM (≈ 0.318 µg/mL); in the experiment on Enterococcus faecalis, 4 µM (≈ 1.27 µg/mL); with Escherichia coli [2] it was 1 µM (≈ 0.318 µg/mL); in the experiment with Staphylococcus aureus [3], 4 µM (≈ 1.27 µg/mL); with Staphylococcus aureus [4], 1 µM (≈ 0.318 µg/mL); in the experiment with Pseudomonas aeruginosa [5], 4 µM (≈ 1.27 µg/mL). Besides, the MIC was 1 µM (≈ 0.318 µg/mL) in the experiment on Candida albicans [6]; 4 µM (≈ 1.27 µg/mL) in the experiment with Candida tropicalis; 4 µM (≈ 1.27 µg/mL) in the experiment on Staphylococcus aureus [7]; 1 µM (≈ 0.318 µg/mL) with Escherichia coli [8]; 1 µM (≈ 0.318 µg/mL) in the experiment on Acinetobacter baumannii; 1 µM (≈ 0.318 µg/mL) with Candida parapsilosis. The MIC in the experiment on Staphylococcus aureus [9] is 2 µM (≈ 0.637 µg/mL); in the experiment with Aspergillus fumigatus, 4 µM (≈ 1.27 µg/mL); in the experiment on Pseudomonas aeruginosa [10], 1 µM (≈ 0.318 µg/mL); in the experiment with Klebsiella pneumoniae, 1 µM (≈ 0.318 µg/mL).
For the compound `CCCCCCCCN1C(=O)/C(=N\Nc2nccs2)c2ccccc21`, the MIC in the experiment with Candida albicans [1] turned out to be 512 µM (≈ 183 µg/mL); in the experiment on Enterococcus faecalis, 32 µM (≈ 11.4 µg/mL); in the experiment on Escherichia coli [2] it was 256 µM (≈ 91.3 µg/mL); in the experiment with Staphylococcus aureus [3], 512 µM (≈ 183 µg/mL); with Staphylococcus aureus [4] it was 512 µM (≈ 183 µg/mL); with Pseudomonas aeruginosa [5], 128 µM (≈ 45.6 µg/mL). Also, the MIC is 256 µM (≈ 91.3 µg/mL) in the experiment on Candida albicans [6]; 512 µM (≈ 183 µg/mL) in the experiment on Candida tropicalis; 512 µM (≈ 183 µg/mL) in the experiment on Staphylococcus aureus [7]; 512 µM (≈ 183 µg/mL) in the experiment with Escherichia coli [8]; 512 µM (≈ 183 µg/mL) in the experiment with Acinetobacter baumannii; 128 µM (≈ 45.6 µg/mL) in the experiment with Candida parapsilosis. The MIC amounted to 512 µM (≈ 183 µg/mL) in the experiment with Staphylococcus aureus [9], 512 µM (≈ 183 µg/mL) with Aspergillus fumigatus, 64 µM (≈ 22.8 µg/mL) in the experiment on Pseudomonas aeruginosa [10] and 512 µM (≈ 183 µg/mL) in the experiment on Klebsiella pneumoniae.
In the case of `CCCCN1C(=O)/C(=N\Nc2nccs2)c2cc([N+](=O)[O-])ccc21`, the MIC in the experiment on Candida albicans [1], in the experiment on Enterococcus faecalis, in the experiment with Escherichia coli [2], in the experiment with Staphylococcus aureus [3], in the experiment on Staphylococcus aureus [4] and with Pseudomonas aeruginosa [5] was 512 µM (≈ 177 µg/mL) in each case. For the same compound, the MIC in the experiment on Candida albicans [6] was 512 µM (≈ 177 µg/mL); in the experiment on Candida tropicalis, 512 µM (≈ 177 µg/mL); with Staphylococcus aureus [7] it was 512 µM (≈ 177 µg/mL); with Escherichia coli [8] it was 512 µM (≈ 177 µg/mL); with Acinetobacter baumannii, 0.5 µM (≈ 0.173 µg/mL); in the experiment with Candida parapsilosis, 512 µM (≈ 177 µg/mL). For the same compound, the MIC in the experiment on Staphylococcus aureus [9], in the experiment on Aspergillus fumigatus, in the experiment on Pseudomonas aeruginosa [10] and with Klebsiella pneumoniae was 512 µM (≈ 177 µg/mL) in each case.
